# Experimental data as given in patent US20100172944A1, “COMBINATION OF MONOSACCHARIDES WITH SUNSCREENS AND USE THEREOF” (L'OREAL, priority 2008, published 2010).
# How the values were obtained:
# [1] = test system: type I procollagen; test: Synthesis of procollagen 1 in reconstructed skin (indirect immunofluorescence); format: cell-based, human; conditions: for procollagen 1 synthesis: reconstructed skin
# Experimental: Conventional detection via indirect immunofluorescence of type I procollagen in the dermis of the reconstructed skin was also performed on other series of frozen sections (anti-procoll 1 antibody (MAB 1912 Millipore)+FTIC-coupled conjugate (112-095-068 Jackson Immunoresearch)). In order to obtain bearings within the cutaneous architecture during the microscopic examination of the sections, the cell nuclei of the keratinocytes and fibroblasts are localized by staining them with propidium iodide, as described above. Three frozen sections are prepared at random on each reconstructed skin and on each section, and two microscopic fields (25× objective lens) are analysed by fluorescence microscopy and photographed. The levels of fluorescence proportional to the amount of type I procollagen are compared between the control skin and the skin treated with rhamnose.
# [2] = test system: dermal fibroblasts of the reconstructed skin; test: Proliferation of fibroblasts in whole reconstructed skin (propidium iodide nuclei count on frozen sections); format: cell-based, human; conditions: 5 mM; within 48 hours of treatment; vs control skin
# Text: Rhamnose was studied on a model of whole reconstructed skin in order to measure its anti-ageing efficacy on the dermal compartment.
# Briefly, the model of reconstructed skin used is that described by Bell et al. (Bell E. et al., The reconstitution of living skin, J. Invest. Dermatol., 1983, July; 81): it includes a dermal equivalent on which is reconstructed a multistratified epidermis; the dermal equivalent is manufactured from acid-soluble collagen, culture medium containing serum and normal adult human fibroblasts. After 5 days of shrinkage, this equivalent is inoculated with keratinocytes and then cultured for 6 days in immersion and for 7 days in emersion in order to obtain a multistratified and differentiated epidermis having a horny layer.
# The reconstructed skin is treated with 5 mM rhamnose for 2 days and 5 days in the culture medium; after the treatment, the reconstructed skins are included in Tissue Tek in order to produce frozen sections 7 μm thick with a cryostat. […] Three frozen sections are prepared at random on each reconstructed skin; on each section, two microscopic fields (25× objective lens) are analysed by fluorescence microscopy and photographed. The dermal fibroblasts are thus counted for each reconstructed skin on six images in total representing the six microscopic fields considered. […]
# [3] = test system: keratinocytes (HaCat line); test: Proliferation of keratinocytes in culture medium deficient in growth factors (Cyquant, Nile red, XTT markers); format: cell-based; conditions: medium depleted in growth factors; compared with untreated control
# Experimental: The keratinocytes (HaCat line) are cultured under two conditions: whole defined culture medium (standard condition) and culture medium deficient in growth factors. This deficient medium gives rise to a controlled delay in cell proliferation. Under these conditions, it is then possible to measure the effects of compounds capable of compensating for the deficiency in growth factors of the culture medium and thus of relaunching the cell multiplication and/or of stimulating cell metabolism.
# The keratinocyte proliferation is measured by means of three markers on the same cell population: the level of DNA, which is proportional to the number of cells (Cyquant probe), the level of constituent polar lipids of cell membranes (Nile red probe) and the mitochondrial respiration, which reflects the general cell metabolism (XTT probe).
structure (smiles),measurement,setting,value
"C[C@H](O)[C@H](O)[C@@H](O)[C@@H](O)C=O [rhamnose, Rhamnose]",green fluorescence proportional to the amount of type I procollagen,"[1]; 1 mM for 120 hours, compared with control skin (FIG. 4)",marked increase in green fluorescence
same,procollagen 1 synthesis,[1]; 1 mM,stimulation of procollagen 1 synthesis
same,procollagen 1 synthesis,[1]; 5 mM,stimulation of procollagen 1 synthesis
same,growth of the dermal fibroblasts of the reconstructed skin,[2],induces stimulation of growth
same,keratinocyte proliferation,[3],activate keratinocyte proliferation
